# Literature values in US6620446B2, “Antibacterial composition for control of gram positive bacteria in food applications” (Rhodia, Inc., priority 2000, dated 2003).
# Test system: L. monocytogenes
# Settings: reported by M. Doyle, Food Technology 1988
substance,measurement,value
nisin,"initial inhibition of the organism's growth, duration",about 12 hours
